Assays:
HeLa cells = assay: MTS assay of PMA-treated HeLa cells with camptothecin-loaded MMP9-NANs; format: cell-based; conditions: HeLa cells treated with PMA for 21 h
Description: In order to test the correlation between enzyme expression level within a live cell and the ability of the pep-NANs to be degraded, an additional assay was run in which HeLa cells were treated with phorbol 12-myristate 13-acetate (PMA), a known inducer of MMP9 expression in HeLa cells. Cells were incubated in serum-free media and treated with MMP9-NANs carrying camptothecin, a known apoptotic cancer drug. The toxicity of the drug loaded MMP9-NANs was evaluated using an MTS assay post 21 h PMA treatment, allowing enough time for MMP9 expression.

MCF-7 cells = assay: Confocal microscopy uptake of TYE-665 labeled DNAzyme in MCF-7 cells; format: cell-based; conditions: 4 hours of incubation
Description: FIG. 15 illustrates cellular uptake and targeted gene knockdown by DNAzyme-NANs in MCF-7 cells. (A) Confocal microscopy of free DNAzymes labeled with TYE-665 dye transfected into MCF-7 cells and monitored for evidence of cellular uptake post 4 hours of incubation. (B) Confocal microscopy of DNz-NANs incubated with cells without transfection agents in which the DNAzyme on the NAN was also labeled with TYE-665 dye. […] All scale bars are 20 μm. (C) GATA-3 mRNA knockdown in MCF-7 cells. 250 nM DNz-NAN is capable of knocking down mRNA by 60% compared to untreated cells (N=3, p=0.0016). […] Error bars represent the standard error of the mean (N=3). (D) MCF-7 cells treated with 250 nM DNz-NANs, monitored for GATA-3 mRNA levels via qRT-PCR at times ranging from 4 to 48 hours of incubation.
Targeted cleavage is only possible if the DNz-NAN can disassemble and the DNz-surfactants can escape the endosomal compartments of the cell post endocytosis. To study the suitability of the DNz-NAN for cellular uptake and stability of its DNAzyme ligands in the cell, the DNz-NANs were first incubated in 10% fetal bovine serum to mimic exposure to cellular nucleases. […] 1 μM Dye-DNz-NANs were incubated with MCF-7 cells for 4 hr and monitored for evidence of uptake using confocal microscopy (FIGS. 15A and 15B). […]

GATA-3 mRNA truncate [1] = assay: Cleavage assay of mRNA truncate, polyacrylamide gel; format: biochemical; conditions: 37° C., 4 h
Description: Cleavage Assay. To test the activity of the GATA-3 DNAzyme, both free DNAzyme and 5 μM of ligated NANs were incubated with 0.5 μM GATA-3 mRNA truncate, both in the presence and absence of salts (10 mM MgCl2 and 100 mM NaCl). The different reactions were then run on an 8% denaturing polyacrylamide gel at 350 V for 30 minutes. The gel was scanned using both a 473 nm laser and a 532 nm laser.

GATA-3 mRNA truncate [2] = assay: Kinetics cleavage assay (BHQ-mRNA fluorescence); format: biochemical; conditions: 10 nM DNAzyme, mRNA truncate 10-200 nM, 37° C.
From the text: Kinetics Cleavage Assay: To determine the kinetics of the cleavage of GATA-3 by both the free and NAN-bound DNAzyme, a fluorescence-based assay was developed. A mRNA truncate corresponding to the cleavable sequence in GATA-3 mRNA was purchased (BioSearch Technologies). The truncate, herein referred to as BHQ-mRNA, was functionalized with a quencher (BHQ1) at the 3′ end and a fluorescein derivative (FAM) at the 5′ end. […] All fluorescence measurements were taken using a Horiba Jobin Yvon fluorometer and, unless otherwise stated, all samples were excited at 470 nm and measurements taken from 485 nm to […]. Samples were heated to their stated temperature using a Cary single cell peltier accessory. A solution of MgCl2 (10 mM), NaCl (100 mM), DNAzyme (10 nM) and H2O was prepared in a total volume 400 μL. The DNAzyme solution was heated to 70° C. for ten minutes prior to mixing. The sample was cooled to and held at 37° C. in the fluorometer and an initial background reading was taken. BHQ mRNA (10 nM, BioSearch Technologies) was spiked into the sample and the fluorescence monitored over 20 minutes. Additional measurements were taken at 25, 50, 75, and 200 nM concentrations of mRNA. This same procedure was repeated for the DNAzyme-NAN (10 nM). […] All non-linear fits for assigning Vmax values were determined using Kaleidagraph 4.5 graphing software.

[3] = system: mRNA truncate within the Au NP lipoplex; assay: mRNA cleavage across AuNP-templated lipid bilayer (synthetic lipoplex); format: biochemical; conditions: equal concentrations of DNAzyme
From the text: A synthetic lipoplex system was designed to help monitor mRNA cleavage across a lipid bilayer (FIG. 16A). This construct was built using a gold nanoparticle (Au NP) as it can support a simplified lipid bilayer system (FIG. 16B). At the Au NPs surface, both a thiolated DNA molecule and a thiolated PEG-DSPE molecule were assembled (1:2 ratio). The DNA at the surface serves as an anchoring site for the annealing of the 19mer mRNA truncate. For this assay, the same mRNA truncate that was utilized in the kinetics assay was used. Therefore, unless cleaved, the molecule should have limited fluorescence as it has both the BHQ quencher and FAM modifications. This construct was further encapsulated with DOPE, to form a bilayer around the AuNPs, a procedure previously disclosed (Shen et al. Nanoscale, 2016, 8, 14821-14835.) These particles were then subjected to either the free DNAzyme or DNAzyme-surfactants, and the extent of mRNA cleavage evaluated as a function of increases observed in overall fluorescence. To mimic more closely the DNz-surfactant that would results from the DNz-NANs post degradation by endosomal esterases, a modified surfactant which presented only two alkynes was synthesized, attached the DNA anchor to it, and ligated DNAzymes to the anchor to form a DNAzyme-surfactant conjugate. […] All conditions had equal concentrations of DNAzyme.

## CCCCCCCCCCCCCC(=O)O[C@@H]1[C@@H](C)[C@@]2(O)[C@@H](C=C(CO)C[C@]3(O)C(=O)C(C)=C[C@@H]23)[C@@H]2C(C)(C)[C@]12OC(C)=O [PMA, phorbol 12-myristate 13-acetate]
HeLa cells
  no toxicity up to: up to 150 ng/mL

## DNAzyme: GATA-3 targeting DNAzyme (hgd40), SEQ ID NO:2 (DNA GTGGATGGAGGCTAGCTACAACGAGTCTTGGAG; GATA-3 DNAzyme; misc_structure (1)..(1) monophosphorylated site)
MCF-7 cells
  cellular uptake (TYE-665 signal): TYE signal could be observed in the perinuclear region of the cells
GATA-3 mRNA truncate [1]
  cleavage of truncated GATA-3 mRNA (gel): complete cleavage
GATA-3 mRNA truncate [2]
  Km: 59 nM
[3]
  access to and cleavage of mRNA truncate across lipid bilayer (fluorescence): limited change in signal

Source: patent US11786479B2, “Nucleic acid nanocapsules for drug delivery and targeted gene knockdown” (University of Connecticut, priority 2017, dated 2023)
